Active and inactive are the calls of the source. The calls are words filed in the database; no cut-off is given here.
How the values were obtained:
Echinochloa crus-galli [1] = test: Herbicidal activity against Echinochloa crus-galli (barnyard grass) assessed as growth inhibition at 100 ug/mL; format: functional; conditions: (L.) Beauv, read-out: GI
Brassica napus [2] = test: Herbicidal activity against Brassica napus (oilseed rape) assessed as growth inhibition at 10 ug/mL; format: functional; conditions: read-out: GI
Brassica napus [3] = test: Herbicidal activity against Brassica napus (oilseed rape) assessed as growth inhibition at 100 ug/mL; format: functional; conditions: read-out: GI
Echinochloa crus-galli [4] = test: Herbicidal activity against Echinochloa crus-galli (barnyard grass) assessed as growth inhibition at 10 ug/mL; format: functional; conditions: (L.) Beauv, read-out: GI
Echinochloa crus-galli [5] = test: Herbicidal activity against Echinochloa crus-galli (barnyard grass) assessed as plant bleaching effect at 100 ug/mL; format: functional, organism-based; conditions: (L.) Beauv

Compound | inhibition of growth at 100 µg/mL (Echinochloa crus-galli [1]) | inhibition of growth at 10 µg/mL (Brassica napus [2]) | inhibition of growth at 100 µg/mL (Brassica napus [3]) | inhibition of growth at 10 µg/mL (Echinochloa crus-galli [4]) | Activity (Echinochloa crus-galli [5])
COc1ccc(/C(O)=C2\C(=O)CN(C(C)C)C2=O)cc1 | 80% | 11.9% | 71% | 79.6% | Active
CC(C)(C)N1CC(=O)/C(=C(/O)c2cccc([N+](=O)[O-])c2)C1=O | 0.5% | 22.1% | 80.1% | 0% | inactive
Cc1ccccc1/C(O)=C1\C(=O)CN(C)C1=O | 78.3% | 0% | 44.4% | 31.2% | Active
CN1CC(=O)/C(=C(/O)c2ccc([N+](=O)[O-])cc2)C1=O | 51.9% | 5.1% | 40.9% | 9% | inactive
CC(C)N1CC(=O)/C(=C(/O)c2ccc(Cl)cc2)C1=O | 68% | 16% | 77.2% | 25.1% | Active
CC(C)(C)N1CC(=O)/C(=C(/O)c2ccc([N+](=O)[O-])cc2)C1=O | 9.8% | 1.8% | 48.1% | 0% | inactive
COc1ccccc1/C(O)=C1\C(=O)CN(C(C)C)C1=O | 78.1% | 3% | 58.7% | 77.3% | Active
CC(C)N1CC(=O)/C(=C(/O)c2ccccc2Cl)C1=O | 77.9% | 38.9% | 66.8% | 51% | Active
Cc1ccccc1/C(O)=C1\C(=O)CN(C(C)C)C1=O | 77.3% | 15.2% | 62.4% | 76.9% | Active
Cc1cccc(/C(O)=C2\C(=O)CN(C(C)C)C2=O)c1 | 75.5% | 3.3% | 82.1% | 49.2% | Active
CC(C)N1CC(=O)/C(=C(/O)c2ccc([N+](=O)[O-])cc2)C1=O | 1.6% | 4.5% | 34.2% | 0% | inactive
CC(C)N1CC(=O)/C(=C(/O)c2cccc([N+](=O)[O-])c2)C1=O | 42% | 10.2% | 70.3% | 0% | inactive
CN1CC(=O)/C(=C(/O)c2cccc([N+](=O)[O-])c2)C1=O | 42.8% | 0% | 22.4% | 5.2% | inactive
COc1ccc(/C(O)=C2\C(=O)CN(C(C)(C)C)C2=O)cc1 | 80.3% | 5.4% | 77.7% | 78.7% | Active
Cc1cccc(/C(O)=C2\C(=O)CN(C)C2=O)c1 | 68.3% | 14% | 64% | 25.3% | Active
Cc1ccc(/C(O)=C2\C(=O)CN(C(C)C)C2=O)cc1 | 78.4% | 8.1% | 86.4% | 76.8% | Active
CN1CC(=O)/C(=C(/O)c2ccc(Cl)cc2)C1=O | 50.1% | 15.8% | 90.5% | 9.4% | inactive
COc1ccc(/C(O)=C2\C(=O)CN(C)C2=O)cc1 | 78.8% | 7.9% | 50.7% | 16.2% | Active
COc1ccccc1/C(O)=C1\C(=O)CN(C(C)(C)C)C1=O | 82.9% | 41.2% | 69.5% | 74.9% | Active
CS(=O)(=O)c1ccc(C(=O)C2C(=O)CCCC2=O)c(Cl)c1 [SULCOTRIONE] | 45.1% | 3.5% | 38.1% | 29.4% | Active
CC(C)(C)N1CC(=O)/C(=C(/O)c2ccc(Cl)cc2)C1=O | 20.8% | 13.8% | 98% | 0.4% | inactive
Cc1ccccc1/C(O)=C1\C(=O)CN(C(C)(C)C)C1=O | 74.4% | 21.1% | 74.9% | 63.6% | Active
Cc1cccc(/C(O)=C2\C(=O)CN(C(C)(C)C)C2=O)c1 | 48.5% | 24.9% | 85% | 4.9% | inactive
Cc1ccc(/C(O)=C2\C(=O)CN(C(C)(C)C)C2=O)cc1 | 48% | 13.5% | 88.1% | 36.3% | inactive
